What was measured:
[1] = tested on: superoxide in the thoracic aorta; experiment: Superoxide production in thoracic aorta of apoE-deficient mice, lucigenin chemiluminescence; type: in vivo; settings: 10 weeks, controls 534,000±145,000
Description: (§1) ApoE-deficient mice were treated daily with DM 5 mg/kg/day (n=9), 10 mg/kg/day (n=9), 20 mg/kg/day (n=9) or 40 mg/kg/day (n=11) for 10 weeks. Production of superoxide in PMN (1×10^6 cells/mL PBS) (A) was measured by lucigenin-enhanced chemiluminescence. The results are expressed as mean±SD. (P<0.05, control versus 10 mg/kg/day; P<0.001, control versus 20 mg/kg/day and 40 mg/kg/day). Production of superoxide in the thoracic aorta (B) was also measured by lucigenin-enhanced chemiluminescence. The results are expressed as mean±SD. (P<0.05, control versus 10 mg/kg/day and 40 mg/kg/day; P<0.01, control versus 20 mg/kg/day).
(§2) Having established the DM inhibitory effect on macrophage activation and NADPH oxidase, we next examined the functional consequences of which in vivo. […] Sections of left carotid arteries from the mice were stained with DHE and then imaged with a laser scanning confocal microscope.

[2] = tested on: superoxide production in left carotid arteries; experiment: Superoxide in left common carotid artery of apoE-deficient mice, DHE staining; type: in vivo
Description: Representative photomicrographs of the […] sections in apoE-deficient mice were treated daily with water only (A) or DM 5 mg/kg/day (B), 10 mg/kg/day (C), 20 mg/kg/day (D) or 40 mg/kg/day (E) for 10 weeks. […] The results are representative of 4 independent experiments with 6-8 independently analyzed mice/group. (bar=50 μm)
as §2

[3] = tested on: NADPH oxidase-deficient mice; settings: Zhang et al. 2004; cited from earlier work
[4] = tested on: superoxide production in PMN; experiment: Superoxide production in PMN of apoE-deficient mice, lucigenin chemiluminescence; type: in vivo; settings: controls 519,000±115,000
Description: as §1, §2

macrophage NADPH oxidase = experiment: Macrophage NADPH oxidase activity after LPS, lucigenin chemiluminescence; type: cell-based, human; settings: LPS alone 3,310,000±1,670,000
Description: THP-1 cell culture was pretreated for 1 hour with the indicated concentrations of DM before stimulation with 100 ng/mL LPS. Lysis buffer was added to the cells and centrifuged. The supernatant was discarded and the pellet was resuspended. NADPH oxidase activity was measured by mixing 30 μg protein, 5 μM lucigenin, and 100 μM NADPH. Chemiluminescence was determined every 10 seconds for 15 minutes. Data are presented as mean±SD (n=8-15). ***P<0.001 compared with the LPS-treated cells.

plasma TNF-α = experiment: Plasma TNF-α in LPS-treated FVB mice (ELISA); type: in vivo; settings: 6 h, LPS only 576.1±43.6
Description: All mice then received 20 mg/kg LPS by intraperitoneal injection. Blood samples were obtained at 6 hours after LPS injection from a catheter placed in the left carotid artery. Blood samples were centrifuged, and the plasma TNF-α levels were measured by ELISA. Lungs were harvested from the animals 6 hours after LPS injection in each group as described above. The tissues were fixed in 4% paraformaldehyde and embedded in paraffin for histopathological examination. The presence of inflammatory cells in lungs was determined by immunofluorescence. The sections were incubated with rat monoclonal antibody against mouse CD45, a leukocyte common antigen (1:50 dilution, Pharmingen). After washing, fluorescein isothiocyanate-conjugated sheep […] immunoglobulin (Amersham Pharmacia Biotech) was applied as a secondary antibody. […] The total CD45-positive cell number was counted in five randomly selected sections under high power field magnification (400×) for each mouse. Oxidative fluorescent microtopography with the oxidative fluorescent dye dihydroethidium (DHE) was used to evaluate the in situ production of superoxide in aorta. Aortas were harvested from the animals at 6 hours after LPS injection in each group as described above. Unfixed frozen ring segments were cut into 30-μm-thick sections and placed on a glass slide. DHE (10 μM) was topically applied to each tissue section and a cover slip was applied. Slides were incubated in a light-protected humidified chamber at 37° C. for 30 minutes. Fluorescence was detected with a laser scanning confocal microscope (Leica Microsystems, Germany) with excitation at 488-nm and detection at 585-nm using a long-pass filter.

[5] = tested on: MCP-1 release from THP-1 cells after LPS stimulation; experiment: LPS-induced MCP-1 release in THP-1 macrophage culture (ELISA); type: cell-based, human; settings: 1 μM pretreatment, LPS alone 9.22±1.17
Description: THP-1 cells were grown in the RPMI-1640 medium containing 10% fetal bovine serum at 37° C. in 5% CO2. The cells were differentiated to macrophages after treatment of the culture with 100 nM PMA for 24 hours. The cell suspension (5×10^5) was added in 0.5 mL into each well of the tissue culture plates. […] LPS was dissolved in sterile water and stored at −70° C. in aliquots. LDL was isolated from human endotoxin-free heparin plasma and was oxidized using CuSO4. In brief, LDL (1 mL, 1 mg/mL) was dialyzed in 500 mL phosphate-buffered saline (PBS, pH 7.4) overnight. Copper sulfate was added to a final concentration of 5 μM, and the LDL was allowed to oxidize at room temperature for 24 hours.
The supernatants were harvested and the TNF-α, IL-6, and MCP-1 levels were determined by ELISA. Superoxide production in the THP-1 cell culture was measured by lucigenin-enhanced chemiluminescence as described previously (Khadour F H, Panas D, Ferdinandy P, et al. Am J Physiol Heart Circ Physiol, 28:H1108-15 2002). LPS-treated THP-1 cells were treated with PBS containing 1.25 mM lucigenin, and counts were obtained for a 10-minute period in a luminometer (Berthold Technologies, Germany) as relative light units (RLU) emitted. Background counts determined in cell-free preparations were subtracted. […]

## COc1ccc2c(c1)[C@]13CCCC[C@@H]1[C@H](C2)N(C)CC3 [DM, (+)-3-methoxy-17-methyl-9α,13α,14α-morphinan]
[1]; 5 mg/kg, P=NS
  superoxide in the thoracic aorta: 424,000±141,000 RLU/15 min
[1]; 10 mg/kg
  superoxide in the thoracic aorta: 377,000±97,000 RLU/15 min
[1]; 20 mg/kg
  superoxide in the thoracic aorta: 341,000±94,000 RLU/15 min
[1]; 40 mg/kg
  superoxide in the thoracic aorta: 379,000±84,000 RLU/15 min
[2]; DM 5, 10, 20 or 40 mg/kg/day for 10 weeks vs water only
  DHE staining (superoxide), FIG. 14: staining was much more reduced
[2]; DM 10, 20, and 40 mg/kg/day for 10 weeks
  DHE fluorescence intensity in sections of left carotid arteries (superoxide): significantly reduced the increase of fluorescence intensity
[3]
  anti-inflammatory effect: anti-inflammatory effect was not observed
[4]; 5 mg/kg/day 10 weeks, P=NS
  PMN production of superoxide: 460,000±138,000 RLU/15 min
[4]; 10 mg/kg/day 10 weeks
  PMN production of superoxide: 390,000±63,000 RLU/15 min
[4]; 20 mg/kg/day 10 weeks
  PMN production of superoxide: 328,000±82,000 RLU/15 min
[4]; 40 mg/kg/day 10 weeks
  PMN production of superoxide: 328,000±82,000 RLU/15 min
Macrophage NADPH oxidase; DM 0.01 μM pretreatment
  NADPH oxidase activity: 1,360,000±860,000 RLU/15 min/mL
Macrophage NADPH oxidase; DM 0.1 μM pretreatment
  NADPH oxidase activity: 1,280,000±540,000 RLU/15 min/mL
Macrophage NADPH oxidase; DM 1 μM pretreatment
  NADPH oxidase activity: 1,400,000±730,000 RLU/15 min/mL

## C=CCN1CC[C@]23c4c5ccc(O)c4O[C@H]2C(=O)CC[C@@]3(O)[C@H]1C5 [Naloxone, 17-allyl-4,5α-epoxy-3,14-dihydroxymorphinan-6-one]
Plasma TNF-α; 10 mg/kg i.p. before 20 mg/kg LPS
  plasma TNF-α level: 452.9 ± 55.0 pg/mL
Plasma TNF-α; 20 mg/kg i.p. before 20 mg/kg LPS
  plasma TNF-α level: 251.9 ± 59.6 pg/mL
Plasma TNF-α; 25 mg/kg i.p. before 20 mg/kg LPS
  plasma TNF-α level: 288.0 ± 33.9 pg/mL
[5]
  MCP-1 in medium: 6.16 ± 0.16 ng/mL

— patent US7820689B2, “Methods and compositions for preventing or treating cardiovascular disease” (priority 2006, dated 2010)
